Measured values from PubChem BioAssay AID504508 (Sanford-Burnham Center for Chemical Genomics, 2011).

Tested on: 697 B-cell NF-kB luciferase reporter, PMA/ionomycin, 16 h;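 active = compounds whose mean IC50 for blocking receptor-driven NF-kB reporter light is 800 nM or lower; inactive = the rest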
Test: NF-kB luciferase reporter inhibition in 697 B cells – B-cell specific, luminescence, set 2, SAR follow-up (AID 504508)

IC50, active:
CCCOc1ccc(-c2nc(CSCC(=O)NC3CC3)c(C)o2)cc1 90 nM
CCOc1ccc(-c2nc(CSCC(N)=O)c(C)o2)cc1 80 nM
CCCOc1ccc(-c2nc(CSCC(=O)O)c(C)o2)cc1 40 nM
CCCCOc1ccc(-c2nc(CSCC(=O)O)c(C)o2)cc1 80 nM
CCCOc1ccc(-c2nc(CSCC(=O)NCc3ccco3)c(C)o2)cc1 90 nM
CC(C)c1ccc(-c2noc(CCC(=O)NC3CC3)n2)cc1 250 nM
Cc1oc(-c2ccc(OC(F)(F)F)cc2)nc1CSCC(=O)O 190 nM
CCCCc1ccc(-c2noc(CCC(=O)NCC)n2)cc1 130 nM
C#CCNC(=O)CSCc1nc(-c2ccc(OCC)cc2)oc1C 60 nM
CCCCc1ccc(-c2noc(CCC(=O)NC)n2)cc1 110 nM
CCOc1ccc(-c2nc(CSCC(=O)O)c(C)o2)cc1 50 nM
